Paper PMC5321434, “Dihydrobenz[e][1,4]oxazepin-2(3H)-ones, a new anthelmintic chemotype immobilising whipworm and reducing infectivity in vivo” (PLoS Neglected Tropical Diseases, 2017)

Test system: adult T. muris
Experiment: Ex vivo adult T. muris automated motility assay (primary/secondary screen at 100 μM and dose-response)
Set-up: species or system Trichuris muris
Details: 100 μM; for COMBINED_SCREEN_ACTIVITY: combined primary and secondary screen minus log fold change in movement, adult T. muris; for PRIMARY_SCREEN_MINUS_LOG_FOLD_CHANGE_MOVEMENT: primary screen, adult T. muris motility
Protocol: Severe combined immune deficiency (SCID) mice were bred in the Biological Services Facility at the University of Manchester. Both male and female SCID mice were infected with a high dose of 200 infective embryonated T. muris eggs via oral gavage. At day 35 post-infection, groups of 5 mice were killed and their […] colons removed. Guts were opened longitudinally, washed with pre-warmed Roswell Park Memorial Institute (RPMI) 1640 media supplemented with penicillin (500U/ml) and streptomycin (500μg/ml) and adult T. muris worms gently removed using fine forceps. Worms removed from SCID mice were maintained in RPMI-1640 media supplemented with penicillin (500U/ml) and streptomycin (500μg/ml) at approximately 37°C and studied on the same day. Using fine forceps, individual live worms were placed into 96 well plates containing 75μl of RPMI-1640 medium supplemented with penicillin (500U/ml) and streptomycin (500μg/ml) plus 1% final concentration of DMSO or compound dissolved in DMSO. In the primary screen the test compound concentration was 100μM. Plates were then incubated at 37°C, 5% CO2, and motility was analysed after 24 hours. Worm movement was quantified using an automated motility assay. This system gives an estimate of worm movement in each well by thresholding and quantifying pixel intensity variance over time. An earlier version of this system has been previously described. One adult T. muris worm was used per well, with one well per compound in each replicate of the primary screen. The primary screen was repeated each week for a period of four weeks giving four independent biological replicates from separate parasite batches for each compound. Dose-response curves were calculated with the four factor log-logistic model using the R package drc. The primary screen was carried out at 100μM final concentration. Assay plates were assigned unique IDs and statistical analysis was performed without knowledge of compound identities using R scripts. Once hit wells were identified, well/plate positions were mapped to compound identities using DataWarrior [28]. […] Compounds identified as having encouraging activity from the DMSO solution samples were then resynthesized for confirmatory testing.

| SMILES | COMBINED_SCREEN_ACTIVITY | PRIMARY_SCREEN_MINUS_LOG_FOLD_CHANGE_MOVEMENT |
| --- | --- | --- |
| CC(C)N1C(=O)COCc2ccc(-c3cccc(F)c3)cc21 [Compound 29] | 1.463 | 1.463 |
| COCCN1C(=O)COCc2cc(Br)ccc21 [Compound 30] | 0.3958 | 0.3958 |
| COCCN1C(=O)COCc2ccc(Br)cc21 [Compound 31] | -1.486 | -1.486 |
| COc1cc(F)ccc1-c1cccc2c1COCC(=O)N2C [Compound 32] | -1.894 | -1.894 |
| CN1C(=O)COCc2c(-c3ccc(F)c(Cl)c3)cccc21 [Compound 33] | 1.432 | 1.432 |
| CN1C(=O)COCc2c(-c3cc(F)cc(Cl)c3)cccc21 [Compound 34] | -1.392 | -1.392 |
| O=C1COCc2ccc(-c3cccc(F)c3)cc2N1CC1CC1 [Compound 35] | 10.5493 | 10.5493 |
| COCCN1C(=O)COCc2ccc(-c3ccccc3C)cc21 [Compound 36] | -1.658 | -1.658 |
| COCCN1C(=O)COCc2ccc(-c3cccc(O)c3)cc21 [Compound 37] | -1.788 | -1.788 |
| COCCN1C(=O)COCc2ccc(-c3cccc(F)c3)cc21 [Compound 38] | -1.255 | -1.255 |
| CC(C)N1C(=O)COCc2ccc(-c3cc(F)cc(F)c3)cc21 [Compound 39] | 3.736 | 3.736 |
| N#Cc1cccc(-c2ccc3c(c2)N(CC2CC2)C(=O)COC3)c1 [Compound 40] | -0.6738 | -0.6738 |
| O=C1COCc2ccc(-c3cccc(CO)c3)cc2N1CC1CC1 [Compound 41] | -1.108 | -1.108 |
| COc1ccccc1-c1ccc2c(c1)N(CC1CC1)C(=O)COC2 [Compound 42] | 1.209 | 1.209 |
| COc1ccc(-c2ccc3c(c2)N(CC2CC2)C(=O)COC3)cc1 [Compound 43] | 3.877 | 3.877 |
| COc1ccc(-c2ccc3c(c2)N(CC2CC2)C(=O)COC3)cn1 [Compound 44] | -1.021 | -1.021 |
| COCCN1C(=O)COCc2ccc(-c3ccccc3OC)cc21 [Compound 45] | -1.409 | -1.409 |
| COCCN1C(=O)COCc2ccc(-c3ccc(OC)cc3)cc21 [Compound 46] | -1.143 | -1.143 |
| O=C1COCc2ccc(-c3ccc(Cl)cc3)cc2N1CC1CC1 [Compound 47] | 1.5592 | 1.5592 |
| O=C1COCc2ccc(-c3cc(F)cc(F)c3)cc2N1CC1CC1 [Compound 48] | 1.875 | 1.875 |
| O=C1COCc2ccc(-c3ccncc3)cc2N1Cc1ccccc1 [Compound 49] | -0.743 | -0.743 |
| O=C1COCc2ccc(-c3cccnc3)cc2N1Cc1ccccc1 [Compound 50] | 0.07509 | 0.07509 |
| O=C1COCc2cc(-c3cccnc3)ccc2N1Cc1ccccc1 [Compound 51] | -0.6528 | -0.6528 |
